Data set [1] can be described thus: Assignment of risk classifications to benchmark chemical-exposure scenarios. The settings on record: for risk: from table S1.
Data set [2] has as its target Glucocorticoid receptor, NR3C1 (h) (Homo sapiens, UniProt P04150). The experiment in a line: IPP NR3C1 binding (agonist radioligand). The settings on record: IPP screening at 10 uM; control dexamethasone.
Data set [3] addresses Histamine H2 receptor, HRH2 (h) (Homo sapiens, UniProt P25021). The experiment in a line: IPP HRH2 binding (antagonist radioligand). The settings on record: control cimetidine.
The target in data set [4] is Angiotensin-converting enzyme 2, ACE2 (h) (Homo sapiens, UniProt Q9BYF1). The data set is described as follows: IPP ACE2 enzymatic activity. The settings on record: 10 uM; control captopril. Type of data set: biochemical.
Sequence of Angiotensin-converting enzyme 2, ACE2 (h) (Q9BYF1 18-805): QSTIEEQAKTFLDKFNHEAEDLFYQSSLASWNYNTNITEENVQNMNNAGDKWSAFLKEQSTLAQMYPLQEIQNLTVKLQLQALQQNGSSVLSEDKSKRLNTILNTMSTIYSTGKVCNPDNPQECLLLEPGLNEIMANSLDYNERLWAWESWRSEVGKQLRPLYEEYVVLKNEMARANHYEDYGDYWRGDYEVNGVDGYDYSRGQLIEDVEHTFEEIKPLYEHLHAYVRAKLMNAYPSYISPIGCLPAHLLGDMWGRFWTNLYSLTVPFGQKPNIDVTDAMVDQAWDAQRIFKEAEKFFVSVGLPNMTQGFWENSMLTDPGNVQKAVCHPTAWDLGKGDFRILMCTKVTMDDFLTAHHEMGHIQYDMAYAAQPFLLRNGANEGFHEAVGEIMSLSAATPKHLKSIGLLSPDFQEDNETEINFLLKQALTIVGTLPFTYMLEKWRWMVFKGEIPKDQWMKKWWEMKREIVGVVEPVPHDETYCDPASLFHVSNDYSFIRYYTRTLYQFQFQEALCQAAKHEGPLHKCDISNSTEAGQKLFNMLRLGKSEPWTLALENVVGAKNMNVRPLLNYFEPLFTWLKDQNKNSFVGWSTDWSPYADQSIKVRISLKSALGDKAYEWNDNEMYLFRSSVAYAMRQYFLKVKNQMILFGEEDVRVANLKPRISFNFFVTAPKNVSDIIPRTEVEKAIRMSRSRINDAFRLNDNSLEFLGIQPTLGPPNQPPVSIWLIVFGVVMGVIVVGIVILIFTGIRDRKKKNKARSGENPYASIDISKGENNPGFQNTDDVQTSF
In data set [5] the test system is dog. The settings on record: ref ToxRefDB/Paul-Friedman et al. (2020)/regulatory opinions, cited from earlier work.
Data set [6] has as its target T1, Progesterone receptor, PGR (h) (Homo sapiens, UniProt P06401).
T1 sequence (P06401 1-933): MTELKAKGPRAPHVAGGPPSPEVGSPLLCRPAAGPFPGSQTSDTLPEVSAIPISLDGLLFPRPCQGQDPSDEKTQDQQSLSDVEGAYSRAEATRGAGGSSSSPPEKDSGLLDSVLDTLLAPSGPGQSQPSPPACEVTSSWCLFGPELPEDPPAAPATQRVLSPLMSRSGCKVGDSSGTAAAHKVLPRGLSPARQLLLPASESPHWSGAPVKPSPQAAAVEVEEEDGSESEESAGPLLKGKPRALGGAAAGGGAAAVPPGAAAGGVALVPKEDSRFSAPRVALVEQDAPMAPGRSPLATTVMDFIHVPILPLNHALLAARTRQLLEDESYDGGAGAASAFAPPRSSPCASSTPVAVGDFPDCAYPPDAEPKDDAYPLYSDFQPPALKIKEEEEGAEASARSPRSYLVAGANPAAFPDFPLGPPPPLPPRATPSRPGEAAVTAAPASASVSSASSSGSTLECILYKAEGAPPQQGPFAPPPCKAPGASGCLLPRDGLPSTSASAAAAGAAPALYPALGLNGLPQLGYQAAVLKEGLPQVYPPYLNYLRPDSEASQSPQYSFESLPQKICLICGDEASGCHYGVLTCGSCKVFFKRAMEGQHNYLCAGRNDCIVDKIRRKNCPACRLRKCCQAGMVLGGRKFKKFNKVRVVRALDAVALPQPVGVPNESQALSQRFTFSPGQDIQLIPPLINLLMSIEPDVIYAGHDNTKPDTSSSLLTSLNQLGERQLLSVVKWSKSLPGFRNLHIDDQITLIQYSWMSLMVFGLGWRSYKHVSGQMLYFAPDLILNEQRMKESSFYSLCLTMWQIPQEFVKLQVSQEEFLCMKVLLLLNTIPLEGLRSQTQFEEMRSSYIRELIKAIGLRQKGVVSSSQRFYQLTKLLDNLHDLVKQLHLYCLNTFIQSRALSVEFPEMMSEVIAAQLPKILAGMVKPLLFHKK
The data set is described as follows: IPP PGR coactivator recruitment (antagonist). Type of data set: biochemical. The settings on record: ligand progesterone.

Data set [7] concerns the target T1, Progesterone receptor, PGR (h). The data set is described as follows: biochemical. Type of data set: biochemical. The settings on record: agonist, progesterone for control.
The conditions of data set [8]: cited from earlier work.
For data set [9], the target named is T2, Peroxisome proliferator-activated receptor gamma, PPARG (h) (Homo sapiens, UniProt P37231).
T2 sequence (P37231 1-505): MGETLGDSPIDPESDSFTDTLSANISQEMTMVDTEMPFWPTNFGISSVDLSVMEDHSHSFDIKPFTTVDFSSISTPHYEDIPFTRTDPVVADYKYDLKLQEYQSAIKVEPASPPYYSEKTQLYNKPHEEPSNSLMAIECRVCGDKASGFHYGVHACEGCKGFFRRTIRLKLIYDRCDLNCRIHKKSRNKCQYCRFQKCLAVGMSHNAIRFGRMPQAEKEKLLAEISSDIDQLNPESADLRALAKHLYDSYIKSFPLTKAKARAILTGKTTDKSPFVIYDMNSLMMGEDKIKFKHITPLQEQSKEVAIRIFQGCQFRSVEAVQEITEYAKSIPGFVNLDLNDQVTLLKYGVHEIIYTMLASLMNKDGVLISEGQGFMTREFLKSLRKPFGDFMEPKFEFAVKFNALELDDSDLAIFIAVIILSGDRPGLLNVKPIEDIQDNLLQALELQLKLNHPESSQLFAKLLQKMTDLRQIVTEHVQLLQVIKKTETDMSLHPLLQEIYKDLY
The experiment in a line: IPP PPARG coactivator recruitment (agonist). Type of data set: biochemical. The settings on record: 10 uM, rosiglitazone for control.

The target of data set [10] is T3, Thyroid hormone receptor beta, THRB (h) (Homo sapiens, UniProt P10828).
T3 construct: purchased Eurofins Cerep (SafetyScreen44-based IPP panel)
T3 sequence (P10828 whole entry): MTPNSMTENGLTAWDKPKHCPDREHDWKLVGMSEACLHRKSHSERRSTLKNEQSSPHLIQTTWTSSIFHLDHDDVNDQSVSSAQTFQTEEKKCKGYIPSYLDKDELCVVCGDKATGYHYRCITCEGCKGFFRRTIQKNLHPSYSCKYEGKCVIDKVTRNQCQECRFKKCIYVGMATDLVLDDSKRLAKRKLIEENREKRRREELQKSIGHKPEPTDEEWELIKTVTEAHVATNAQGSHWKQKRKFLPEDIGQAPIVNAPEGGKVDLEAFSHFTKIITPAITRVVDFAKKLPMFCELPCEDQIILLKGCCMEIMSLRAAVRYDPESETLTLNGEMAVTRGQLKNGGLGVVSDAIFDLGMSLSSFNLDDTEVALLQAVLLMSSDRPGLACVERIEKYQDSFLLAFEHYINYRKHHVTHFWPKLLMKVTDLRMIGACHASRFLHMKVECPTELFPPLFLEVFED
The data set is described as follows: IPP THRB coactivator recruitment (agonist). Type of data set: biochemical. The settings on record: 10 uM, T3.

Data set [11] deals with T2, Peroxisome proliferator-activated receptor gamma, PPARG (h). The data set is described as follows: IPP PPARG coactivator recruitment (antagonist). The settings on record: 10 uM, ligand rosiglitazone. Type of data set: biochemical.
Setting [12] is: human, Oral 100 mg, Tablet, 27 healty male, Fasted, validation, ref Shank, R.P. et al. (2005) Epilepsy Research 63:103-112.
[13] abbreviates: human, Oral 200 mg, Tablet, 25 healty male, Fasted, calibration, ref Shank, R.P. et al. (2005) Epilepsy Research 63:103-112.
The mark [14] stands for this setting: human, Oral 400 mg, Tablet, 26 healty male, Fasted, validation, ref Shank, R.P. et al. (2005) Epilepsy Research 63:103-112.
Where [15] appears, read: Oral 500 mg tablet, Preparation A: non-shellaced core, sugar coated, fasted, 5 healthy male, calibration, ref Hart 1975.
Setting [16] is: Oral 500 mg tablet, Preparation B: shellaced core, sugar coated, fasted, 5 healthy male, calibration, ref Hart 1975.
Setting [17] is: Oral 500 mg tablet, Preparation C: film-coated, fasted, 5 healthy male, calibration, ref Hart 1975.
Where [18] appears, read: human, Oral 500 mg repeat every 12 h, 2 x 250 mg tablets (Terramycin), 4 healthy male, Fasted, measured data for day 1 and day 7, validation, ref GREEN, BROWN & CALVERT, European Journal of Clinical Pharmacology (1979) 10:245-250, cited in EPA (1987).
The mark [19] stands for this setting: human, Oral 500 mg, Preparation D: tablet, film-coated (Oxytetracycline hydrochloride), 5 healthy male, Fasted, calibration, ref HART, Br. J. clin. Pharmac. (1975), 2, 277-280.
Where [20] appears, read: human, Oral 500 mg, Preparation E: Capsule (Oxytetracycline hydrochloride), 5 healthy male, Fasted, calibration, ref HART, Br. J. clin. Pharmac. (1975), 2, 277-280.

Read-outs that look alike come from different tables or passages of the source.

Sequence of Histamine H2 receptor, HRH2 (h) (P25021 whole entry): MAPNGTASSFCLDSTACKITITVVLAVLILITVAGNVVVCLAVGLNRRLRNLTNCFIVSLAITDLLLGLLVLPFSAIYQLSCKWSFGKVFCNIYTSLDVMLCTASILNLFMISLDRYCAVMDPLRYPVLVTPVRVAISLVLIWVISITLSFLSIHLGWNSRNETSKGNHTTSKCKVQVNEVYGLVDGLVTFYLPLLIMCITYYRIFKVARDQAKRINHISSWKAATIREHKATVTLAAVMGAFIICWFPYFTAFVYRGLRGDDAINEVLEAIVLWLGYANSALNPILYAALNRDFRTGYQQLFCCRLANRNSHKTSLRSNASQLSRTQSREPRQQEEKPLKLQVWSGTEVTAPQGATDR
Sequence of Glucocorticoid receptor, NR3C1 (h) (P04150 whole entry): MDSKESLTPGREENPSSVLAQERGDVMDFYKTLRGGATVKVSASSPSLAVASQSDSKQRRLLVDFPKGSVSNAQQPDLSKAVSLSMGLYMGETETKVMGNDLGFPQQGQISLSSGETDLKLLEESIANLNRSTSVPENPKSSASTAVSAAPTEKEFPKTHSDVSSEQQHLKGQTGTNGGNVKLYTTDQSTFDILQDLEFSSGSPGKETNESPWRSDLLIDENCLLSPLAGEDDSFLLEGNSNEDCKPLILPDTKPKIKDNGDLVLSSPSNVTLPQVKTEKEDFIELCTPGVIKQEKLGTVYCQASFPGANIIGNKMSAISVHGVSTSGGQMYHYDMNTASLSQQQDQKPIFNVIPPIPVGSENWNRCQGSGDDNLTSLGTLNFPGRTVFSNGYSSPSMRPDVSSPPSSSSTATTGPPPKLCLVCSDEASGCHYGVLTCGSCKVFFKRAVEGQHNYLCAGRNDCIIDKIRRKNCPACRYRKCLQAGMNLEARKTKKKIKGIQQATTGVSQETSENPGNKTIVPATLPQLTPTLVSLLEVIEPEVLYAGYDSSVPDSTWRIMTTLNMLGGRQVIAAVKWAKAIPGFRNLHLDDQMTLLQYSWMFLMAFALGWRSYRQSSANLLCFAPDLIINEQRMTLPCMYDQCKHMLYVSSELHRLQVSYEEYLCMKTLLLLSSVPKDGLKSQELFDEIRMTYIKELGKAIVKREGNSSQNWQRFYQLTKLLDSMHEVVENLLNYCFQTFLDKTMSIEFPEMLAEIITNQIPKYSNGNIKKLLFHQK

`CCOP(=S)(OCC)Oc1nc(Cl)c(Cl)cc1Cl` [Chlorpyrifos, O,O-Diethyl O-(3,5,6-trichloropyridin-2-yl) phosphorothioate] gave a risk in [1] (Oral, 0.1 mg/kg, Tablet, Exp3) of 1. Also, the Specific binding in data set [2] was 29.4%; in data set [3] (IPP screening at 10 uM) it was -62.6%. Besides, the “IPP screening %, Enzymatic activity” value in [4] is reported as -18.8%. Moreover, the “PoD (NOAEL)” value in [5] (2 years, inhibition of plasma and erythrocyte ChE) is recorded as 0.01 mg/kg bw/day.

As for `CC(C)(C)c1ccc(CCOc2ncnc3ccccc23)cc1` [Fenazaquin, 4-[2-(4-tert-Butylphenyl)ethoxy]quinazoline], the “Risk Classification” value in data set [1] (Oral, residue, 0.005 mg/kg bw/day) was “Low risk”. Moreover, the risk in [1] (Oral, 17% ADI 0.005 mg/kg bw/day, Food residue, Exp2) was 0; in data set [1] (Oral, ADI 0.005 mg/kg bw/day, Food residue, Exp3) it was 0. Also, in data set [3] (IPP screening at 10 uM), the Specific binding is reported as -38.6%. Also, the “IPP screening %, Enzymatic activity” value in [4] is -29.1%.

As to `CC1(C)O[C@@H]2[C@@H](CO[C@@]3(COS(N)(=O)=O)OC(C)(C)O[C@@H]23)O1` [Topiramate, [(3aS,5aR,8aR,8bS)-2,2,7,7-Tetramethyltetrahydro-2H,3aH,7H-bis[1,3]dioxolo[4,5-b:4',5'-d]pyran-3a-yl]methyl sulfamate (non-preferred name)], the “IPP screening %, Coactivator recruitment” value in data set [6] (100 uM) is reported as 2.2%; in [7] (100 uM), 0.5%. In addition, the “Risk Classification” value in data set [1] (Oral 50 mg/day) and in [1] (Oral 500 mg/day) was “High risk” in each case. In addition, the risk was found to be 1 in data set [1] (Oral, High therapeutic, 500mg/day, Tablet, Exp1) and 1 in data set [1] (Oral, Low therapeutic, 50mg/day, Tablet, Exp2). For the same compound, the Specific binding in data set [3] (IPP screening at 100 uM) is -13.7%. Besides, the “Reported AUC0-t” value is 50540 ng·h/mL in data set [8] (setting [12]), 145000 ng·h/mL in [8] (setting [13]) and 229000 ng·h/mL in [8] (setting [14]). For the same compound, the Reported cmax is 1.3281 µg/mL in data set [8] (setting [12]), 3.1578 µg/mL in data set [8] (setting [13]) and 6.5205 µg/mL in data set [8] (setting [14]). Besides, the Reported tmax in data set [8] (setting [12]) is 4 h; in data set [8] (setting [13]) it was 3 h; in [8] (setting [14]), 2 h. Besides, the plasma half-life result in [8] (ref not given) is given as “over 20 h”.

Take “(4S,4aR,5S,5aR,6S,12aS)-4-(Dimethylamino)-3,5,6,10,12,12a-hexahydroxy-6-methyl-1,11-dioxo-1,4,4a,5,5a,6,11,12a-octahydrotetracene-2-carboxamide--hydrogen chloride (1/1) [Oxytetracycline hydrochloride]”: the entries for the “IPP screening %, Coactivator recruitment” value in data set [9], in data set [10] and in data set [11] were -0.1%, -3.0% and 31.2%, respectively. The Specific binding in data set [3] (IPP screening at 10 uM) is -18.3%. The “Reported AUC0-t” value in [8] (setting [15]) was 5731 ng·h/mL; in [8] (setting [16]), 4455 ng·h/mL; in data set [8] (setting [17]) it was 7198 ng·h/mL; in data set [8] (setting [18]), 79420 ng·h/mL; in [8] (setting [19]) it was 8279 ng·h/mL; in data set [8] (setting [20]), 7800 ng·h/mL. Moreover, the Reported cmax in data set [8] (setting [15]) was 1.2 µg/mL; in data set [8] (setting [16]), 0.88 µg/mL; in data set [8] (setting [17]) it was 1.43 µg/mL; in data set [8] (setting [18]), 2.25 µg/mL; in data set [8] (setting [19]) it was 1.51 µg/mL; in data set [8] (setting [20]) it was 1.45 µg/mL. Further, the Reported tmax in data set [8] (setting [15]) is reported as 2 h; in [8] (setting [16]), 3 h; in data set [8] (setting [17]) it was 3 h; in [8] (setting [18]), 74 h; in data set [8] (setting [19]), 2 h; in data set [8] (setting [20]), 3 h. Moreover, the “IPP screening %, Enzymatic activity” value in [4] is -18.6%. In addition, the “PoD (NOAEL)” value in data set [5] (12 months (dog), 24 months (rat)) is on record as 50 mg/kg bw/day.

As to “mixture of 2- and 3-tert-butyl-4-methoxyphenol [Butylated Hydroxyanisole]”, the “IPP screening %, Coactivator recruitment” value in [9] was -0.1%; in data set [6] (10 uM), 4.0%; in [10] it was 1.0%; in data set [7] (10 uM) it was 0.1%; in data set [11] it was 1.4%. Further, the Specific binding is listed as -0.5% in data set [2] and -2.5% in [3] (IPP screening at 10 uM). Further, the “IPP screening %, Enzymatic activity” value in [4] is given as -6.0%.

(Values after PMC11879040, “Advancing systemic toxicity risk assessment: Evaluation of a NAM-based toolbox approach” (Toxicological Sciences, 2024).)
